Values joined by “and” are separate entries in the source; they are usually repeats but may differ in a detail not shown here. Identical values can stand only once. Positions of bridges follow the written chain, without caps; N, C: chain ends. Non-standard residues stand in square brackets, D forms with d. hArg = N=C(N)NCCCC[C@H](N)C(=O)O; S5 = C=CCCC[C@](C)(N)C(=O)O
Key:
PTH receptor type 2 = PTH receptor type 2 (UniProt P49190 25-550, limits assumed); experiment: cell-based or functional assay
PTH receptor type 2, sequence (P49190 25-550 limits assumed): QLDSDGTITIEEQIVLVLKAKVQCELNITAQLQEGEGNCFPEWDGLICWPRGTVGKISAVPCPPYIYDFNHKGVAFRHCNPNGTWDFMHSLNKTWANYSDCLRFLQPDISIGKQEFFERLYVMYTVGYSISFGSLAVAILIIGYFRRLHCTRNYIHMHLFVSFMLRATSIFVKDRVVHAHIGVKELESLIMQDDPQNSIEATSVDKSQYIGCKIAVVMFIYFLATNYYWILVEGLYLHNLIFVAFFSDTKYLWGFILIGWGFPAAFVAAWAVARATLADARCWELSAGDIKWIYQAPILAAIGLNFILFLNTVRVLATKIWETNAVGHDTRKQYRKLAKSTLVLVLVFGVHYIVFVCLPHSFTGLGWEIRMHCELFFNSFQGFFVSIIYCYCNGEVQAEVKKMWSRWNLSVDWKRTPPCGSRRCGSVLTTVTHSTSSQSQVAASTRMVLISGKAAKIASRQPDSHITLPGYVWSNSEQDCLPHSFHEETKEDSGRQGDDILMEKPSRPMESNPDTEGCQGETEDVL

[1] = test system: PTH (1-34) induced hypercalcemia; experiment: TPTx rat model of PTH (1-34) induced hypercalcemia; assay type: in vivo; conditions: for Ionized calcium, Avg. / Total calcium, Avg. / Ionized calcium, individual animals / Total calcium, individual animals: Group 2 Vehicle/PTH; for Ionized calcium, Avg. / Total calcium, Avg.: TPTx rats, PTH 1.25 μg/kg/h IV infusion
Method: PTH Antagonist in a TPTx Rat Model of PTH (1-34) Induced Hypercalcemia
Experiments were conducted assess the effect of a PTH antagonist SP#63 in a thyroparathyroidectomized (TPTx) rat model of PTH (1-34) induced hypercalcemia. Thyroid hormone was given as supportive therapy prior to start of PTH infusion.
SP#63 or the vehicle for SP#63 was administered as an intravenous (IV) bolus in PTH infused thyroparathyroidectomized (TPTx) Sprague-Dawley rats. SP#63 was administered at 0.925 mg/kg and 1.850 mg/kg, 1 to 3 min before the initiation of the IV infusion. PTH (administered at 1.25 μg/kg/h) or the vehicle for PTH were infused via a femoral catheter over a period of 6 hours at a rate of 1 mL/kg/h. Total and ionized calcium were measured from blood samples collected at 0, 2, 4 and 6 hours during the IV infusion.

human PTH1 receptor = molecular target: T1, human PTH1 receptor (human, UniProt Q03431 27-593); experiment: cell-based or functional assay
T1 sequence (looked up): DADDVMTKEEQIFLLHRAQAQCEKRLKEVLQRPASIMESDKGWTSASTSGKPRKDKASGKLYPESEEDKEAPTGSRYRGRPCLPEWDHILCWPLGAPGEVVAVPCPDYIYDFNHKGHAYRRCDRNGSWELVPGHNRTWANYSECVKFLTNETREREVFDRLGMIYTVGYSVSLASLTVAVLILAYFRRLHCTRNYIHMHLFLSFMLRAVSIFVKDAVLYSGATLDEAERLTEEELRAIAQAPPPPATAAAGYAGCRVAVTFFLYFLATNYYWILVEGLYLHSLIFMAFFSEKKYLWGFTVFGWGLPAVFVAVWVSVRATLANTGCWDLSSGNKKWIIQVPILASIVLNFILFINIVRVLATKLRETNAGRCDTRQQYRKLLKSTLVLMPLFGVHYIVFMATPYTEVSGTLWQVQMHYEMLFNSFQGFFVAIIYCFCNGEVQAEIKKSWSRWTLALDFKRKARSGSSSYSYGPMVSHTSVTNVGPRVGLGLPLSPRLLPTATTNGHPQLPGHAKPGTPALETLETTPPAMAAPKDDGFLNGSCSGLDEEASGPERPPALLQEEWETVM

“TIP-39 (from UniProt Q96A98 62-100) (ligand)” gave a calcium flux, EC80 (PTH receptor type 2) of 4.1 nM.

For PTH (1-34), the “Ionized calcium, Avg.” value ([1]; 2 h) was 4.13 mg/dL, the “Total calcium, Avg.” value ([1]; 2 h) was 8.28 mg/dL and the “Ionized calcium, Avg.” value ([1]; 4 h) was 4.62 mg/dL. The “Total calcium, Avg.” value ([1]; 4 h) was 9.14 mg/dL, the “Ionized calcium, Avg.” value ([1]; 6 h) was 4.99 mg/dL and the “Total calcium, Avg.” value ([1]; 6 h) was 9.92 mg/dL. For the same molecule, the “Ionized calcium, Avg.” value ([1]; time 0) was 3.36 mg/dL, the “Total calcium, Avg.” value ([1]; time 0) was 7.22 mg/dL and the “Ionized calcium, individual animals” value ([1]; animals 2001-2005, 2 h) was 4.08 mg/dL and 3.27 mg/dL and 4.85 mg/dL and 4.68 mg/dL and 3.75 mg/dL. The “Total calcium, individual animals” value ([1]; animals 2001-2005, 2 h) was 8.2 mg/dL and 6.6 mg/dL and 9.8 mg/dL and 9.3 mg/dL and 7.5 mg/dL, the “Ionized calcium, individual animals” value ([1]; animals 2001-2005, 4 h) was 4.58 mg/dL and 3.88 mg/dL and 5.29 mg/dL and 5.02 mg/dL and 4.34 mg/dL and the “Total calcium, individual animals” value ([1]; animals 2001-2005, 4 h) was 9.1 mg/dL and 7.6 mg/dL and 10.5 mg/dL and 9.8 mg/dL and 8.7 mg/dL. For the same molecule, the “Ionized calcium, individual animals” value ([1]; animals 2001-2005, 6 h) was 5.06 mg/dL and 4.15 mg/dL and 5.71 mg/dL and 5.23 mg/dL and 4.79 mg/dL, the “Total calcium, individual animals” value ([1]; animals 2001-2005, 6 h) was 10.1 mg/dL (2×) and 8.3 mg/dL and 11.4 mg/dL and 9.7 mg/dL and the “Ionized calcium, individual animals” value ([1]; animals 2001-2005, time 0) was 3.21 mg/dL and 3.07 mg/dL and 4.01 mg/dL and 3.16 mg/dL. The “Total calcium, individual animals” value ([1]; animals 2001-2005, time 0) was 6.7 mg/dL and 6.4 mg/dL and 8.4 mg/dL and 8.3 mg/dL and 6.3 mg/dL, the “ionized calcium at 6 h” value ([1]; PTH infusion 1.25 μg/kg/h with vehicle for SP#63, 3.36 mg/dL at 0 h) was 4.99 mg/dL and the “total calcium at 6 h” value ([1]; PTH infusion 1.25 μg/kg/h with vehicle for SP#63, 7.22 mg/dL at 0 h) was 9.92 mg/dL.

For BIM-44002 (peptide), the calcium flux IC50 (PTH receptor type 2) was > 10000 nM.

With H-LLHQRAKWIQD[S5]RRR[S5]WLRKKLQDVHNF-NH2 (staple 12-16) [SP# 247] the “IC50, SaOS-2 cAMP with PTH[1-84] or PTHrP[1-34] as ligand” value (“IC50, SaOS-2 cAMP” for short) (human PTH1 receptor) was < 10 nM.

With H-LLHQRA[S5]WIQ[S5]LRRR[S5]WLR[S5]KLQDVHNF-NH2 (staple 7-11, 16-20) [SP# 246] the “IC50, SaOS-2 cAMP” value (human PTH1 receptor) was < 10 nM.

With H-LL[S5]QRA[S5]WIQD[S5]RRR[S5]WLHHLIAEIHTA-NH2 (staple 12-16, 3-7) [SP# 232] the “IC50, SaOS-2 cAMP” value (human PTH1 receptor) was < 10 nM.

In the case of H-LLH[S5]RAK[S5]IQDLRRRFW[S5]HHL[S5]AEIHTA-NH2 (staple 18-22, 4-8) [SP# 226], the “IC50, SaOS-2 cAMP” value (human PTH1 receptor) is reported as < 10 nM.

With H-LL[S5]QRA[S5]WIQDLRRRFW[S5]HHL[S5]AEIHTA-NH2 (staple 18-22, 3-7) [SP# 228] the “IC50, SaOS-2 cAMP” value (human PTH1 receptor) was < 10 nM.

H-LLHQ[hArg]AK[S5]IQD[S5]RRR[S5]WLH[S5]LIAEIHTAEY-NH2 (staple 8-12, 16-20) [SP# 67] was tested, and the “calcium flux IC50” value (PTH receptor type 2) was < 10000 nM.

In the case of H-LLHQRA[S5]WIQ[S5]LRRREW[S5]RKK[S5]QDVHNF-NH2 (staple 7-11, 18-22) [SP# 245], the “IC50, SaOS-2 cAMP” value (human PTH1 receptor) is reported as < 10 nM.

Source: patent US20170037086A1, “PEPTIDOMIMETIC MACROCYCLES WITH PTH ACTIVITY” (AILERON THERAPEUTICS, INC., priority 2014, published 2017)
